Reference: patent publication US10465005B2, “JAML specific binding agents, antibodies, and uses related thereto” (Emory University, priority 2011, dated 2019)

Columns and labels:
[1] = test system: HL-60 and PLB-985 cell lines; experiment: Surface JAML on HL-60 and PLB-985 after PMA activation; format: cell-based, human; conditions: 200 nM PMA, 30 minutes at 37° C.; FIG. 5A
Experimental: Both HL60 and PLB985 (non-differentiated and differentiated) were washed in Hanks solution with Ca^++ and Mg^++ (H^+) at 30×10^6 cells per condition and resuspended in 350 μl H^+ or H^+ containing 200 nM PMA followed by 30 minutes incubation at 37° C. A cell aliquot was set aside for flow cytometry and cells were stained with monoclonal CBRM1/29 (CD11b/CD18) or DW100 anti JAML followed by Alexa Fluor 488 conjugated goat anti mouse antibody.
The findings of JAML shedding were extended to both HL-60 and PLB-985 cell lines. […] Upon activation, human neutrophils release microparticles,called ectosomes, directly from the cell surface and that ectosomes are implicated in the inflammatory response (Eken et al., 2008, J. Immunol. 180, 817-824). To test whether JAML molecules were released in microparticles, supernatants from activated cells were subjected to ultracentrifuge (100,000×g). […] Thus, JAML is indeed shed into the medium upon PMN activation as a soluble molecule.

monocytes = experiment: Surface JAML on monocytes after PMA activation; format: cell-based, human; conditions: 15 minutes at 37° C., FIG. 11
Experimental: Monocytes were isolated and purified from whole blood of healthy human donors, incubated on ice with either IgG control (solid histograms) or purified anti-JAML antibodies (5 μg/ml), followed by Alexa Fluor 488 conjugated goat anti mouse antibody before (NoTx) and after PMA activation (PMA, 15 minutes at 37° C.). JAML surface expression was analyzed by flow cytometry.
Following the observation of a complete loss of JAML on PMNs that underwent TEM and with the use of JAML specific mAbs, it was determined that the loss of JAML was induced by PMN activation and that it correlated to the degree of activation and the strength of the given stimulus. […] JAML shedding is not restricted to PMNs alone. JAML is also expressed on blood monocytes. […] As monocytes trail the PMNs infiltrating mucosal surfaces, in addition to PMNs they would also be a source for soluble JAML, further enhancing its effects on epithelial function. […] The shedding of JAML is believed to be due to a zinc-dependent metalloprotease that is inhibited by phenanthroline, a zinc chelator molecule and TAPI-2, a hydroxymate acid-base derivative which inhibits zinc-dependent metalloprotease activities by binding specifically to the catalytic site of the enzyme.

PMN = experiment: Surface JAML on PMN after activation (flow cytometry); format: cell-based, human; conditions: PMA 200 nM, suspension, 15 minutes at 37° c.; FIG. 4A
Experimental: Freshly isolated PMN, not treated (No Tx), or treated with either fMLF (100 nM) or PMA (200 nM) in suspension for 15 minutes at 37° c. were fixed with 1% paraformaldehyde, stained for JAML (DW100) and CD11b/CD18 (CBRM 1/29) and analyzed for surface expression by flow cytometry.
Since prior to transepithelial migration PMNs exit the blood vessels, whether JAML expression on PMNs would be preserved during migration across endothelial cells (HDMECs) towards a 10 μM fMLF, as described previously was evaluated. Indeed under similar conditions only a small portion of surface JAML was lost, but most of it was still detectable on PMN surface (FIG. 3B).
Thus whether PMN activation alone is sufficient to induce the loss of surface JAML or whether direct contact with the epithelium is required was examined. To test this, the expression of JAML was analyzed on PMNs that were stimulated in suspension with fMLF (100 μM) and PMA (200 nM). PMNs were allowed to adhere to epithelial cells for 1 hour. The loss of JAML could be correlated to the degree of PMN activation. […] This was again confirmed by immunofluorescence (FIG. 4B). PMN adhesion to epithelium in the absence of proinflamatory stimulus (as measured by flow cytometry, gating on Mac-1 positive PMNs) was also sufficient to induce a partial loss of surface JAML (FIG. 4C), in agreement with the small loss of surface JAML observed after migration through endothelial cells (FIG. 3B). […] Next, the observed loss of JAML during PMN activation may be due to its shedding from PMN surface and thus would be detectable in the supernatant of activated cells. To test this hypothesis, two antibodies, DW100 and DW216 that recognize two different epitopes of JAML were used in a sandwich ELISA assay to capture solubilized molecules in the supernatant of activated PMN.

[2] = test system: JAML shedding from differentiated HL60; experiment: JAML shedding with protease inhibitors, differentiated HL60; format: cell-based, human; conditions: PMA 200 nM; cocktail 1:50, AEBSF 1 mM, PMSF 2 mM, Phenanthroline 5 mM, NEM 6 mM; sandwich ELISA; FIG. 6A
Experimental: JAML shedding from differentiated HL60 was assayed as described in the legend for FIG. 5. Protease inhibitors were added to cell suspensions during incubation in H^+ with or without PMA. Inhibitors used were Sigma inhibitor cocktail (Cat #P8340) used at 1:50 dilution, AEBSF 1 mM, PMSF 2 mM, Phenanthroline 5 mM and NEM 6 mM.
(§1) To explore the mechanisms for release of JAML from the surface of differentiated HL60 and PLB-985 cells during activation with PMA, PMA was added to cells in the presence or absence of a variety of protease inhibitors. The protease inhibitor cocktail from Sigma that targets serine proteases was used as well as cysteine proteases and several independent inhibitors. […] (Le Gall et al., 2003, JBC 278 No46 45255-45268).
Cells were suspended at 100×10^6 cells/ml in 50 ml centrifuge tubes. PMA was added at a final concentration of 200 nM and tubes incubated at 37° C. of 30 min. Supernatants were collected by centrifugation. To eliminate the presence of macroparticles in the supernatants, ultracentrifugation was performed in a table-top microcentrifuge (Beckman TL-100) at 100,000 g for 30 minutes. The “cleared” supernatants were assayed for the presence of soluble JAML.
Purified antibody DW100 (100 μl/well of 10 μg/ml dilution) was coated onto a high binding 96 well plate (Immulon II) overnight at 4° C. or 1½ hr at 37° C. After washing, 200 μl of 5% blocking solution (Roche) was added to each well for 1 hr at room temperature (RT). After washing, 100 μl supernatant samples in triplicates were added to the wells as well as serial dilutions of purified sJAML-His and incubated for 1 hr RT. After washing, 100 μl biotinylated DW216 antibodies was added at 10 μg/ml. This was followed after a wash by Streptavidin-HRP diluted at 1:4000. The wells were washed again and after addition of ABTS substrate, wells were analyzed using a microplate reader at 405 nm wavelength.

[3] = test system: JAML shedding from PLB985; experiment: JAML shedding with protease inhibitors, PLB985; format: cell-based, human; conditions: Phenanthroline; TAPI-2 1 μM
Experimental: FIG. 5C. Inhibition of JAML shedding on the cell surface of PLB985 was confirmed by FACS analysis of cells stained with DW216. In the presence of inhibitors, activated cells maintained the same level of surface expression as the non-activated cells.
as §1
Cells suspensions of adherent cells were prepared by trypsinization with Trypsin-EDTA (Sigma). After washing, cells were resuspended in FACS buffer (2% FBS in PBS+0.1% Na Azide). Approximately, 3-5×10^5 cells were incubated with 5-10 μg/ml of primary antibody for 1 hr at 4° C. followed by 3 washes in FACS buffer and incubation with 1 μg/ml secondary antibody conjugated with Alexa-488. After final washes, cells were analyzed using FACS Calibur. […] All samples were stained for JAML (DW100 mAb) and CD11b/CD18 (CBRM 1/29), and only CD11b/CD18 positive cells (PMNs) were analyzed for JAML expression.

[4] = test system: JAML release from CHO-JAML-His transfectants; experiment: JAML release with protease inhibitors, CHO-JAML-His transfectants; format: cell-based
CAR = biological target: T1, CAR (Mus musculus, UniProt P97792); experiment: Colonic mucosal wound healing in vivo; conditions: mice; I.P. twice a day 10 μg in 200 μl PBS; endoscopic imaging; FIG. 13B
T1 construct: from tissue; host or cells: mouse colonic mucosa
T1 sequence (P97792 20-365): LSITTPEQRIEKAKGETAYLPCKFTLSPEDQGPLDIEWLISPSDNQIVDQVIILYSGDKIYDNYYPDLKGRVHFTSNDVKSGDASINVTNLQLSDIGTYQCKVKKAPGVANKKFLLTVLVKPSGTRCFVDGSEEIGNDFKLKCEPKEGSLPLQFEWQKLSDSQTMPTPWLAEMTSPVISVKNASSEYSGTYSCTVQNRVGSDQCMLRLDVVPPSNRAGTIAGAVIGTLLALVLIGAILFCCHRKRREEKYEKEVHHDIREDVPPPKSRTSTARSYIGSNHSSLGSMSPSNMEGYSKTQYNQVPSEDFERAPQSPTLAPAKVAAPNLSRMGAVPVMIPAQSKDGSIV
Experimental: (§2) To examine this in-vivo, the effect of inhibition of CAR function was analyzed on mucosal wound recovery. […] See Witherden et al., Science, 2010, 329(5996): 1205-1210. Whether administration of recombinant Ad5 inhibits colonic wound healing was examined in mice in a fashion analogous to the endogenous CAR ligand, JAML. Colonic mucosal wounds were generated using a mouse colonoscope, and wound recovery was examined 2 and 4 days post wounding by endoscopic imaging in the presence of Ad5, Ad11 (administered I.P, twice a day 10 μg in 200 μl PBS) or PBS alone.
as §2, with “function” for “function was analyzed”, “recovery was analyzed.” for “recovery.”, “colonoscope (FIG. 13, Panel A),” for “colonoscope,”, “alone. […] The delayed wound closure was also evident from histological analysis (representative images, FIG. 13, Panel C) and whole mount preparation (representative images, FIG. 13, Panel D).” for “alone.”

epithelial CAR = biological target: T2, epithelial CAR (Mus musculus, UniProt P97792); experiment: Immunofluorescence of wounded mouse colonic tissue; format: in vivo; conditions: I.P. administered his-tagged protein; 1 day after wounding; FIG. 13E
T2 construct: from tissue; host or cells: mouse colonic mucosa
T2 sequence (P97792 20-365): T1 sequence (P97792 20-365)

murine CAR = biological target: T3, murine CAR (Mus musculus, UniProt P97792); conditions: cited from earlier work
T3 sequence (P97792 20-365): T1 sequence (P97792 20-365)

CCCCCCCCCCCCCC(=O)O[C@@H]1[C@@H](C)[C@@]2(O)[C@@H](C=C(CO)C[C@]3(O)C(=O)C(C)=C[C@@H]23)[C@@H]2C(C)(C)[C@]12OC(C)=O [PMA, Phorbol Myristate Acetate]
surface JAML on HL-60 and PLB-985 after PMA [1]: complete loss of surface JAML | JAML expression on monocytes after PMA (monocytes): lost upon activation with PMA | surface JAML on PMN after PMA (PMN): complete loss of surface JAML from PMNs

CCN1C(=O)C=CC1=O [N-Ethyl maleimide, N-Ethylmaleimide]
inhibition of PMA-induced JAML shedding, differentiated HL60 [2]: No decrease in JAML shedding

NCCc1ccc(S(=O)(=O)F)cc1 [AEBSF]
inhibition of PMA-induced JAML shedding, differentiated HL60 [2]: No decrease in JAML shedding

CC(C)C[C@H](CC(=O)NO)C(=O)N[C@H](C(=O)N[C@@H](C)C(=O)NCCN)C(C)(C)C [TAPI-2]
inhibition of PMA-induced JAML shedding, PLB985 [3]: inhibition of shedding | inhibition of PMA-induced JAML release, CHO-JAML-His transfectants [4]: strongly inhibited JAML release due to PMA activation

O=S(=O)(F)Cc1ccccc1 [PMSF, Phenylmethylsulfonyl fluoride]
inhibition of PMA-induced JAML shedding, differentiated HL60 [2]: showed some inhibition

B1: Ad5: recombinant adenoviral fiber knob protein Ad5, reported to bind murine CAR (protein)
chain: GAITVGNKNNDKLTLWTTPAPSPNCRLNAEKDAKLTLVLTKCGSQILATVSVLAVKGSLAPISGTVQSAHLIIRFDENGVLLNNSFLDPEYWNFRNGDLTEGTAYTNAVGFMPNLSAYPKSHGKTAKSNIVSQVYLNGDKTKPVTLTITLNGTQETGDTTPSAYSMSFSWDWSGHNYINEIFATSSYTFSYIAQE
modifications: left off: small tags and cut ends
mucosal wound healing 4 days after wounding (CAR): ~20% | colocalization with epithelial CAR at wounded areas (epithelial CAR): colocalizes with epithelial CAR at wounded areas | binding to murine CAR and competition with JAML binding (Witherden et al. 2010) (murine CAR): has been reported to bind murine CAR and compete with JAML binding
